Assay results taken from BindingDB's records for doi:10.1016/0960-894X(95)00483-A (1995).

Molecular target: Beta-2 adrenergic receptor (Rattus norvegicus) (UniProt P10608)
Test: Agonistic activity against Beta-2 adrenergic receptor in rat uterus

Chain of Beta-2 adrenergic receptor (Rattus norvegicus) (P10608 whole entry, looked up): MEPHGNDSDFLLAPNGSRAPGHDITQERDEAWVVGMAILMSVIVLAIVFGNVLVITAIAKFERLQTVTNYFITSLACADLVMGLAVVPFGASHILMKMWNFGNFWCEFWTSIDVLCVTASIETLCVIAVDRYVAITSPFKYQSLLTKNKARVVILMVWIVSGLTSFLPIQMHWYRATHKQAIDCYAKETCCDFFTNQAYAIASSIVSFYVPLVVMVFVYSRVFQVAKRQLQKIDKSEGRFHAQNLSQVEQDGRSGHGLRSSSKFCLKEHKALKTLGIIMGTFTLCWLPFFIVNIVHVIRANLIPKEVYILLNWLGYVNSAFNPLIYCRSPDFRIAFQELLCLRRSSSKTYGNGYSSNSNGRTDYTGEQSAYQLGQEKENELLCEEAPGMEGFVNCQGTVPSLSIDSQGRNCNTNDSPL

IC50: > 10 µM
Compound: O=C(O)C1(C(=O)O)Oc2cc3c(cc2O1)C[C@@H](NC[C@H](O)c1cccc(Cl)c1)CCC3 [FR-165914]
